Laboratory results from PubChem BioAssay (NCI).
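These data come from cells grown in 96-well plates and exposed to compound for 48 hours at five concentrations. At the GI50, growth is halved. TGI denotes the concentration required for complete inhibition of growth.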

Legend:
Assay in all cases: DTP human tumour cell line panel, 48 h
[1] = test system: SW-620 colon
[2] = test system: NCI-H460 lung
[3] = test system: SK-MEL-28 melanoma
[4] = test system: UO-31 renal
[5] = test system: DU-145 prostate
[6] = test system: SK-OV-3 ovarian
[7] = test system: U251 CNS
[8] = test system: SK-MEL-5 melanoma
[9] = test system: CAKI-1 renal
[10] = test system: SNB-19 CNS
[11] = test system: LOX IMVI melanoma
[12] = test system: NCI-H23 lung
[13] = test system: CCRF-CEM leukemia
[14] = test system: MCF7 breast
[15] = test system: IGROV1 ovarian
[16] = test system: SF-539 CNS
[17] = test system: NCI-H522 lung
[18] = test system: SNB-75 CNS
[19] = test system: A549 NSCLC
[20] = test system: MALME-3M melanoma
[21] = test system: NCI/ADR-RES ovarian
[22] = test system: A498 renal
[23] = test system: HCT-116 colon
[24] = test system: MOLT-4 leukemia
[25] = test system: MDA-MB-435
[26] = test system: RXF 393 renal
[27] = test system: OVCAR-4 ovarian
[28] = test system: RPMI-8226 leukemia
[29] = test system: OVCAR-8 ovarian
[30] = test system: PC-3 prostate
[31] = test system: COLO 205 colon
[32] = test system: MDA-MB-231 breast
[33] = test system: HT29 colon
[34] = test system: NCI-H226 lung
[35] = test system: BT-549 breast
[36] = test system: K-562 leukemia
[37] = test system: OVCAR-3 ovarian
[38] = test system: KM12 colon
[39] = test system: HL-60(TB) leukemia
[40] = test system: 786-0 renal
[41] = test system: SF-268 CNS
[42] = test system: M14 melanoma
[43] = test system: HCC-2998 colon
[44] = test system: SR leukemia
[45] = test system: HS 578T breast
[46] = test system: TK-10 renal
[47] = test system: HOP-62 NSCLC
[48] = test system: OVCAR-5 ovarian
[49] = test system: UACC-62 melanoma
[50] = test system: T-47D breast
[51] = test system: SK-MEL-2 melanoma
[52] = test system: ACHN renal
[53] = test system: HCT-15 colon
[54] = test system: SN12C renal
[55] = test system: UACC-257 melanoma
[56] = test system: HOP-92 NSCLC

For `O=C1/C(=C\c2ccccc2)CN(C(=O)c2ccccc2)C/C1=C\c1ccccc1`, the GI50 [1] was 1.47 µM, the TGI [1] was 3.04 µM and the GI50 [2] was 2.8 µM. The TGI [2] was 8.48 µM, the GI50 [3] was 1.82 µM and the TGI [3] was 3.47 µM. For the same compound, the GI50 [4] was 1.7 µM, the TGI [4] was 3.92 µM and the GI50 [5] was 5.02 µM. It also gave a TGI [5] of 16.4 µM, a GI50 [6] of 3.1 µM and a TGI [6] of 9.44 µM. The GI50 [7] was 1.92 µM, the TGI [7] was 4.44 µM and the GI50 [8] was 1.64 µM. The TGI [8] was 3.06 µM, the GI50 [9] was 2.74 µM and the TGI [9] was 11.1 µM. For the same compound, the GI50 [10] was 3.79 µM, the TGI [10] was 15.1 µM and the GI50 [11] was 1.38 µM. It also gave a TGI [11] of 2.89 µM, a GI50 [12] of 3.62 µM and a TGI [12] of 12.4 µM. The GI50 [13] was 1.43 µM, the TGI [13] was 6.49 µM and the GI50 [14] was 0.39 µM. It also gave a TGI [14] of 1.69 µM, a GI50 [15] of 2.66 µM and a TGI [15] of 6.57 µM. For the same compound, the GI50 [16] was 2.27 µM, the TGI [16] was 6.24 µM and the GI50 [17] was 2.29 µM. It also gave a TGI [17] of 5.27 µM, a GI50 [18] of 7.24 µM and a TGI [18] of 22 µM. The GI50 [19] was 3.63 µM, the TGI [19] was 16.3 µM and the GI50 [20] was 2.96 µM. The TGI [20] was 7.17 µM, the GI50 [21] was 3.69 µM and the TGI [21] was 37.6 µM. For the same compound, the GI50 [22] was 13 µM, the TGI [22] was 27.4 µM and the GI50 [23] was 0.321 µM. For the same compound, the TGI [23] was 1.1 µM, the GI50 [24] was 3.19 µM and the TGI [24] was 43.6 µM. The GI50 [25] was 1.61 µM, the TGI [25] was 5 µM and the GI50 [26] was 1.68 µM. It also gave a TGI [26] of 3.21 µM, a GI50 [27] of 2.98 µM and a TGI [27] of 11.4 µM. For the same compound, the GI50 [28] was 0.238 µM, the TGI [28] was 0.747 µM and the GI50 [29] was 2.96 µM. It also gave a TGI [29] of 11.1 µM, a GI50 [30] of 2.27 µM and a TGI [30] of 7.86 µM. For the same compound, the GI50 [31] was 2.72 µM, the TGI [31] was 7.01 µM and the GI50 [32] was 2.2 µM. The TGI [32] was 5.02 µM, the GI50 [33] was 1.91 µM and the TGI [33] was 4.09 µM. For the same compound, the GI50 [34] was 19.3 µM, the TGI [34] was > 100 µM and the GI50 [35] was 1.86 µM. The TGI [35] was 3.58 µM, the GI50 [36] was 1.67 µM and the TGI [36] was > 100 µM. The GI50 [37] was 2.69 µM, the TGI [37] was 6.34 µM and the GI50 [38] was 1.79 µM. The TGI [38] was 3.4 µM, the GI50 [39] was 4.29 µM and the TGI [39] was 52.7 µM. The GI50 [40] was 2 µM, the TGI [40] was 4.44 µM and the GI50 [41] was 3.4 µM. For the same compound, the TGI [41] was 14.8 µM, the GI50 [42] was 2.1 µM and the TGI [42] was 4.79 µM. The GI50 [43] was 1.89 µM, the TGI [43] was 3.48 µM and the GI50 [44] was 0.335 µM. The TGI [44] was 2.9 µM, the GI50 [45] was 2.31 µM and the TGI [45] was 7.21 µM. It also gave a GI50 [46] of 2.83 µM, a TGI [46] of 9.06 µM and a GI50 [47] of 3.21 µM. It also gave a TGI [47] of 10.7 µM, a GI50 [48] of 2.24 µM and a TGI [48] of 6.83 µM. It also gave a GI50 [49] of 1.69 µM, a TGI [49] of 3.42 µM and a GI50 [50] of 4.93 µM. It also gave a TGI [50] of 19.9 µM, a GI50 [51] of 3.5 µM and a TGI [51] of 8.96 µM. For the same compound, the GI50 [52] was 1.73 µM, the TGI [52] was 3.33 µM and the GI50 [53] was 2.02 µM. It also gave a TGI [53] of 5.9 µM, a GI50 [54] of 1.9 µM and a TGI [54] of 4.31 µM. For the same compound, the GI50 [55] was 2 µM, the TGI [55] was 5.16 µM and the GI50 [56] was 3.28 µM. It also gave a TGI [56] of 21 µM.
